Reference: patent US20260242419A1, “A CYCLIC PEPTIDE FOR TRAPPING INTERLEUKIN-1 BETA” (Merck Sharp & Dohme LLC, priority 2023, published 2026)
Starred links: 1 amine or outer side, 2 acyl side, 3 side chain; linkers in the order of their positions; H or OH if unused. Non-standard residues stand in square brackets, D forms with d. Residues, ends and D or L forms follow the SMILES beside them. X39 = CNc1ncc(-c2ccc(C[C@H]3CCN([*:1])[C@H]3C(=O)[*:2])cc2)cn1; X1 = COc1ncc(-c2ccc(C[C@H]3CCN([*:1])[C@H]3C(=O)[*:2])cc2)cn1; X22 = Nc1ncc(-c2ccc(C[C@H]3CCN([*:1])[C@H]3C(=O)[*:2])cc2)cn1; X49 = Nc1cnc(-c2ccc(C[C@H]3CCN([*:1])[C@H]3C(=O)[*:2])cc2)cn1; dPro(3S-(4-Br-benzyl)) = O=C(O)[C@@H]1NCC[C@@H]1Cc1ccc(Br)cc1; Trp(βS-Me,4-F) = C[C@@H](c1c[nH]c2cccc(F)c12)[C@H](N)C(=O)O; X15 = O=C([C@H]1[C@@H](Cc2ccc(-c3ccnnc3)cc2)CCN1[*:1])[*:2]; X33 = O=C([C@H]1[C@@H](Cc2ccc(-c3ccncc3)cc2)CCN1[*:1])[*:2]; X42 = O=C([C@H]1[C@@H](Cc2ccc(-c3cncnc3)cc2)CCN1[*:1])[*:2]; X48 = O=C([C@H]1[C@@H](Cc2ccc(-c3cccnc3)cc2)CCN1[*:1])[*:2]; Bip(4'-COOH) = N[C@@H](Cc1ccc(-c2ccc(C(=O)O)cc2)cc1)C(=O)O; X18 = Cn1ccnc1-c1ccc(C[C@H]2CCN([*:1])[C@H]2C(=O)[*:2])cc1; X43 = Cc1nocc1-c1ccc(C[C@H]2CCN([*:1])[C@H]2C(=O)[*:2])cc1; X8 = O=C([C@H]1[C@@H](Cc2ccc(-c3ccccn3)cc2)CCN1[*:1])[*:2]; dPro(4R-Bzl(4-F)) = O=C(O)[C@H]1C[C@@H](Cc2ccc(F)cc2)CN1; Ala(pyrimidin-5-yl) = N[C@@H](Cc1cncnc1)C(=O)O; Phe(4-COOH) = N[C@@H](Cc1ccc(C(=O)O)cc1)C(=O)O; Pro(cis-4-F) = O=C(O)[C@@H]1C[C@H](F)CN1; 4Pal = N[C@@H](Cc1ccncc1)C(=O)O; Cit = NC(=O)NCCC[C@H](N)C(=O)O; Dab = NCC[C@H](N)C(=O)O; Aib = CC(C)(N)C(=O)O

Target: T1, IL-1β (Homo sapiens, UniProt P01584)
T1 construct: purchased BioLegend 579404
T1 sequence (P01584 117-269): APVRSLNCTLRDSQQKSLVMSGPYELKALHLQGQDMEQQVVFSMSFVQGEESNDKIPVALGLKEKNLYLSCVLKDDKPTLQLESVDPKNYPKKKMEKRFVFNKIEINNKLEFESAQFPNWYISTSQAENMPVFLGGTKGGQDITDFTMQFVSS
Experiment: IL-6 assay in MRC5 cells: inhibition of IL-1β induced IL-6 secretion (AlphaLISA)
Format: cell-based
Settings: inhibition of IL-1β induced IL-6 secretion in MRC5 cells; read-out: MRC5 IC50
In short: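 Compound was pre-incubated 1 h at ambient temperature with recombinant human IL-1β at 2λ EC80 before adding human lung fibroblast MRC5 cells (3000/well) in EMEM with 0.025% BSA. After overnight culture at 37 °C, 5% CO2, secreted IL-6 in conditioned medium was measured by AlphaLISA; IC50 from 4-parameter logistic fits.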

Compound | IC50
C[C@@H](c1c[nH]c2cccc(F)c12)[C@@H]1NC(=O)[C@@H]2C[C@H](F)CN2C(=O)CNC(=O)[C@H](Cc2ccc(C(=O)O)cc2)NC(=O)[C@H](Cc2ccncc2)NC(=O)[C@H](Cc2ccc(-c3ccc(C(=O)O)cc3)cc2)NC(=O)[C@H]2[C@@H](Cc3ccc(Br)cc3)CCN2C(=O)CNC(=O)[C@H](CCN)NC(=O)[C@H](CCC(N)=O)NC(=O)[C@H](Cc2cncnc2)NC(=O)C(C)(C)NC(=O)[C@H](Cc2c[nH]c3ccccc23)NC(=O)[C@H](CCC(=O)O)NC(=O)C(C)(C)NC1=O [Example 51] (cyclo([4Pal][Phe(4-COOH)]G[Pro(cis-4-F)][Trp(βS-Me,4-F)][Aib]EW[Aib][Ala(pyrimidin-5-yl)]Q[Dab]G[dPro(3S-(4-Br-benzyl))][Bip(4'-COOH)])) | 0.014 nM
C[C@@H](c1c[nH]c2cccc(F)c12)[C@@H]1NC(=O)[C@@H]2C[C@H](F)CN2C(=O)CNC(=O)[C@H](Cc2ccc(C(=O)O)cc2)NC(=O)[C@H](Cc2ccncc2)NC(=O)[C@H](Cc2ccc(-c3ccc(C(=O)O)cc3)cc2)NC(=O)[C@H]2C[C@@H](Cc3ccc(F)cc3)CN2C(=O)CNC(=O)[C@H](CCN)NC(=O)[C@H](CCC(N)=O)NC(=O)[C@H](CCCNC(N)=O)NC(=O)C(C)(C)NC(=O)[C@H](Cc2c[nH]c3ccccc23)NC(=O)[C@H](CCC(=O)O)NC(=O)C(C)(C)NC1=O [Example 52] (cyclo([Bip(4'-COOH)][4Pal][Phe(4-COOH)]G[Pro(cis-4-F)][Trp(βS-Me,4-F)][Aib]EW[Aib][Cit]Q[Dab]G[dPro(4R-Bzl(4-F))])) | 0.021 nM
C[C@@H](c1c[nH]c2cccc(F)c12)[C@@H]1NC(=O)[C@@H]2C[C@H](F)CN2C(=O)CNC(=O)[C@H](Cc2ccc(C(=O)O)cc2)NC(=O)[C@H](Cc2ccncc2)NC(=O)[C@H](Cc2ccc(-c3ccc(C(=O)O)cc3)cc2)NC(=O)[C@H]2[C@@H](Cc3ccc(-c4cncnc4)cc3)CCN2C(=O)CNC(=O)[C@H](CCN)NC(=O)[C@H](CCC(N)=O)NC(=O)[C@H](Cc2cncnc2)NC(=O)C(C)(C)NC(=O)[C@H](Cc2c[nH]c3ccccc23)NC(=O)[C@H](CCC(=O)O)NC(=O)C(C)(C)NC1=O [Example 53] (cyclo([Bip(4'-COOH)][4Pal][Phe(4-COOH)]G[Pro(cis-4-F)][Trp(βS-Me,4-F)][Aib]EW[Aib][Ala(pyrimidin-5-yl)]Q[Dab]G[X42])) | 0.018 nM
CNc1ncc(-c2ccc(C[C@H]3CCN4C(=O)CNC(=O)[C@H](CCN)NC(=O)[C@H](CCC(N)=O)NC(=O)[C@H](Cc5cncnc5)NC(=O)C(C)(C)NC(=O)[C@H](Cc5c[nH]c6ccccc56)NC(=O)[C@H](CCC(=O)O)NC(=O)C(C)(C)NC(=O)[C@H]([C@@H](C)c5c[nH]c6cccc(F)c56)NC(=O)[C@@H]5C[C@H](F)CN5C(=O)CNC(=O)[C@H](Cc5ccc(C(=O)O)cc5)NC(=O)[C@H](Cc5ccncc5)NC(=O)[C@H](Cc5ccc(-c6ccc(C(=O)O)cc6)cc5)NC(=O)[C@@H]34)cc2)cn1 [Example 54] (cyclo([Bip(4'-COOH)][4Pal][Phe(4-COOH)]G[Pro(cis-4-F)][Trp(βS-Me,4-F)][Aib]EW[Aib][Ala(pyrimidin-5-yl)]Q[Dab]G[X39])) | 0.021 nM
C[C@@H](c1c[nH]c2cccc(F)c12)[C@@H]1NC(=O)[C@@H]2C[C@H](F)CN2C(=O)CNC(=O)[C@H](Cc2ccc(C(=O)O)cc2)NC(=O)[C@H](Cc2ccncc2)NC(=O)[C@H](Cc2ccc(-c3ccc(C(=O)O)cc3)cc2)NC(=O)[C@H]2[C@@H](Cc3ccc(-c4ccncc4)cc3)CCN2C(=O)CNC(=O)[C@H](CCN)NC(=O)[C@H](CCC(N)=O)NC(=O)[C@H](Cc2cncnc2)NC(=O)C(C)(C)NC(=O)[C@H](Cc2c[nH]c3ccccc23)NC(=O)[C@H](CCC(=O)O)NC(=O)C(C)(C)NC1=O [Example 55] (cyclo([Bip(4'-COOH)][4Pal][Phe(4-COOH)]G[Pro(cis-4-F)][Trp(βS-Me,4-F)][Aib]EW[Aib][Ala(pyrimidin-5-yl)]Q[Dab]G[X33])) | 0.024 nM
C[C@@H](c1c[nH]c2cccc(F)c12)[C@@H]1NC(=O)[C@@H]2C[C@H](F)CN2C(=O)CNC(=O)[C@H](Cc2ccc(C(=O)O)cc2)NC(=O)[C@H](Cc2ccncc2)NC(=O)[C@H](Cc2ccc(-c3ccc(C(=O)O)cc3)cc2)NC(=O)[C@H]2[C@@H](Cc3ccc(-c4cccnc4)cc3)CCN2C(=O)CNC(=O)[C@H](CCN)NC(=O)[C@H](CCC(N)=O)NC(=O)[C@H](Cc2cncnc2)NC(=O)C(C)(C)NC(=O)[C@H](Cc2c[nH]c3ccccc23)NC(=O)[C@H](CCC(=O)O)NC(=O)C(C)(C)NC1=O [Example 56] (cyclo([Bip(4'-COOH)][4Pal][Phe(4-COOH)]G[Pro(cis-4-F)][Trp(βS-Me,4-F)][Aib]EW[Aib][Ala(pyrimidin-5-yl)]Q[Dab]G[X48])) | 0.022 nM

Now from value to molecule:

IC50 | Compound
0.019 nM | C[C@@H](c1c[nH]c2cccc(F)c12)[C@@H]1NC(=O)[C@@H]2C[C@H](F)CN2C(=O)CNC(=O)[C@H](Cc2ccc(C(=O)O)cc2)NC(=O)[C@H](Cc2ccncc2)NC(=O)[C@H](Cc2ccc(-c3ccc(C(=O)O)cc3)cc2)NC(=O)[C@H]2[C@@H](Cc3ccc(-c4cnc(N)cn4)cc3)CCN2C(=O)CNC(=O)[C@H](CCN)NC(=O)[C@H](CCC(N)=O)NC(=O)[C@H](Cc2cncnc2)NC(=O)C(C)(C)NC(=O)[C@H](Cc2c[nH]c3ccccc23)NC(=O)[C@H](CCC(=O)O)NC(=O)C(C)(C)NC1=O [Example 57] (cyclo([Bip(4'-COOH)][4Pal][Phe(4-COOH)]G[Pro(cis-4-F)][Trp(βS-Me,4-F)][Aib]EW[Aib][Ala(pyrimidin-5-yl)]Q[Dab]G[X49]))
0.037 nM | C[C@@H](c1c[nH]c2cccc(F)c12)[C@@H]1NC(=O)[C@@H]2C[C@H](F)CN2C(=O)CNC(=O)[C@H](Cc2ccc(C(=O)O)cc2)NC(=O)[C@H](Cc2ccncc2)NC(=O)[C@H](Cc2ccc(-c3ccc(C(=O)O)cc3)cc2)NC(=O)[C@H]2[C@@H](Cc3ccc(-c4ccnnc4)cc3)CCN2C(=O)CNC(=O)[C@H](CCN)NC(=O)[C@H](CCC(N)=O)NC(=O)[C@H](Cc2cncnc2)NC(=O)C(C)(C)NC(=O)[C@H](Cc2c[nH]c3ccccc23)NC(=O)[C@H](CCC(=O)O)NC(=O)C(C)(C)NC1=O [Example 58] (cyclo([Bip(4'-COOH)][4Pal][Phe(4-COOH)]G[Pro(cis-4-F)][Trp(βS-Me,4-F)][Aib]EW[Aib][Ala(pyrimidin-5-yl)]Q[Dab]G[X15]))
0.018 nM | C[C@@H](c1c[nH]c2cccc(F)c12)[C@@H]1NC(=O)[C@@H]2C[C@H](F)CN2C(=O)CNC(=O)[C@H](Cc2ccc(C(=O)O)cc2)NC(=O)[C@H](Cc2ccncc2)NC(=O)[C@H](Cc2ccc(-c3ccc(C(=O)O)cc3)cc2)NC(=O)[C@H]2[C@@H](Cc3ccc(-c4cnc(N)nc4)cc3)CCN2C(=O)CNC(=O)[C@H](CCN)NC(=O)[C@H](CCC(N)=O)NC(=O)[C@H](Cc2cncnc2)NC(=O)C(C)(C)NC(=O)[C@H](Cc2c[nH]c3ccccc23)NC(=O)[C@H](CCC(=O)O)NC(=O)C(C)(C)NC1=O [Example 59] (cyclo([Bip(4'-COOH)][4Pal][Phe(4-COOH)]G[Pro(cis-4-F)][Trp(βS-Me,4-F)][Aib]EW[Aib][Ala(pyrimidin-5-yl)]Q[Dab]G[X22]))
0.018 nM | COc1ncc(-c2ccc(C[C@H]3CCN4C(=O)CNC(=O)[C@H](CCN)NC(=O)[C@H](CCC(N)=O)NC(=O)[C@H](Cc5cncnc5)NC(=O)C(C)(C)NC(=O)[C@H](Cc5c[nH]c6ccccc56)NC(=O)[C@H](CCC(=O)O)NC(=O)C(C)(C)NC(=O)[C@H]([C@@H](C)c5c[nH]c6cccc(F)c56)NC(=O)[C@@H]5C[C@H](F)CN5C(=O)CNC(=O)[C@H](Cc5ccc(C(=O)O)cc5)NC(=O)[C@H](Cc5ccncc5)NC(=O)[C@H](Cc5ccc(-c6ccc(C(=O)O)cc6)cc5)NC(=O)[C@@H]34)cc2)cn1 [Example 60] (cyclo([Bip(4'-COOH)][4Pal][Phe(4-COOH)]G[Pro(cis-4-F)][Trp(βS-Me,4-F)][Aib]EW[Aib][Ala(pyrimidin-5-yl)]Q[Dab]G[X1]))
0.022 nM | C[C@@H](c1c[nH]c2cccc(F)c12)[C@@H]1NC(=O)[C@@H]2C[C@H](F)CN2C(=O)CNC(=O)[C@H](Cc2ccc(C(=O)O)cc2)NC(=O)[C@H](Cc2ccncc2)NC(=O)[C@H](Cc2ccc(-c3ccc(C(=O)O)cc3)cc2)NC(=O)[C@H]2[C@@H](Cc3ccc(-c4ccccn4)cc3)CCN2C(=O)CNC(=O)[C@H](CCN)NC(=O)[C@H](CCC(N)=O)NC(=O)[C@H](Cc2cncnc2)NC(=O)C(C)(C)NC(=O)[C@H](Cc2c[nH]c3ccccc23)NC(=O)[C@H](CCC(=O)O)NC(=O)C(C)(C)NC1=O [Example 61] (cyclo([Bip(4'-COOH)][4Pal][Phe(4-COOH)]G[Pro(cis-4-F)][Trp(βS-Me,4-F)][Aib]EW[Aib][Ala(pyrimidin-5-yl)]Q[Dab]G[X8]))
0.021 nM | Cc1nocc1-c1ccc(C[C@H]2CCN3C(=O)CNC(=O)[C@H](CCN)NC(=O)[C@H](CCC(N)=O)NC(=O)[C@H](Cc4cncnc4)NC(=O)C(C)(C)NC(=O)[C@H](Cc4c[nH]c5ccccc45)NC(=O)[C@H](CCC(=O)O)NC(=O)C(C)(C)NC(=O)[C@H]([C@@H](C)c4c[nH]c5cccc(F)c45)NC(=O)[C@@H]4C[C@H](F)CN4C(=O)CNC(=O)[C@H](Cc4ccc(C(=O)O)cc4)NC(=O)[C@H](Cc4ccncc4)NC(=O)[C@H](Cc4ccc(-c5ccc(C(=O)O)cc5)cc4)NC(=O)[C@@H]23)cc1 [Example 62] (cyclo([Bip(4'-COOH)][4Pal][Phe(4-COOH)]G[Pro(cis-4-F)][Trp(βS-Me,4-F)][Aib]EW[Aib][Ala(pyrimidin-5-yl)]Q[Dab]G[X43]))
0.018 nM | C[C@@H](c1c[nH]c2cccc(F)c12)[C@@H]1NC(=O)[C@@H]2C[C@H](F)CN2C(=O)CNC(=O)[C@H](Cc2ccc(C(=O)O)cc2)NC(=O)[C@H](Cc2ccncc2)NC(=O)[C@H](Cc2ccc(-c3ccc(C(=O)O)cc3)cc2)NC(=O)[C@H]2[C@@H](Cc3ccc(-c4nccn4C)cc3)CCN2C(=O)CNC(=O)[C@H](CCN)NC(=O)[C@H](CCC(N)=O)NC(=O)[C@H](Cc2cncnc2)NC(=O)C(C)(C)NC(=O)[C@H](Cc2c[nH]c3ccccc23)NC(=O)[C@H](CCC(=O)O)NC(=O)C(C)(C)NC1=O [Example 63] (cyclo([Bip(4'-COOH)][4Pal][Phe(4-COOH)]G[Pro(cis-4-F)][Trp(βS-Me,4-F)][Aib]EW[Aib][Ala(pyrimidin-5-yl)]Q[Dab]G[X18]))
